Test results reported in patent EP0322643A1, “Medicines containing as a mixture interferon and 1-desoxy-piperidinoses, process for their manufacture and their use” (BAYER AG, priority 1987, dated 1989).

Tested on: Visna-Virus
Assay: Visna virus test: inhibition of virus-induced cytopathic effect in infected sheep fibroblast cell cultures
Assay type: cell-based
Parameters: key to Antivirale Wirkung in der Zellkultur*: 3 = kompletter antiviraler Schutzeffekt; 100% Schutz der Zellen vor der Infektion; 2 = 50% Schutzeffekt der infizierten Zellkultur; 1- 10 - 20% Schutzeffekt der infizierten Zellkultur; 0 = komplette Zerstörung der infizierten Zellkultur
Conditions: for Antivirale Wirkung in der Zellkultur*: compound alone, Schafszellen
Excerpt: In Zellkulturen, die mit Visna-Virus infiziert sind, treten 5 bis 10 Tage nach der Infektion ausgeprägte virusinduzierte, zytopathische Effekte auf. Durch Behandlung der infizierten Zellkulturen mit den erfindungsgemäßen Kombinationen von Verbindungen der allgemeinen Formel (I) und Interferon konnte das Auftreten dieser zytopathischen Effekte verhindert werden.
Der Visna-Virus-Test wurde nach der Methode von 0. Narayan et al., Journal of Infectious Diseases 135, 5, 1977, 800 - 806 durchgeführt. Dazu wurden die erfindungsgemäßen Kombinationen von Verbindungen der allgemeinen Formel (I) und Interferon im Kulturmedium zu nicht zytotoxischen Konzentrationen verdünnt, und zwar in 96er Microtiterplatten. Anschließend wurden zu jeder Verdünnung der Wirkstoffe Schafsfibroblastenzellen (5 x 10⁴ Zellen pro Napf) in Kulturmedium zugeführt.
Jedes Näpfchen erhielt dann 50 µl einer Visna-Viruslösung mit einem Titer von ca. 2,5 x 10⁴ TCID₅₀ (TCID = tissue culture infectious dosis). Diese Virusdosis entspricht einer MOI (Multiplizität der Infektion) von ca. 0,05.
Unter diesen Infektionsbedingungen resultierte zwischen Tag 5 und Tag 10 in einer Infektionskontrolle ohne Substanz ein virusinduzierter, zytopathischer Effekt. Die infizierten und behandelten Zellen und die Kontrollzellen wurden 7 Tage bei 37°C, 5% CO₂ inkubiert.
Bei Auftreten des virusinduzierten zytopathogenen Effektes in der unbehandelten Viruskontrolle wurden die Kulturen mit Formalin fixiert und anschließend mit einer Giemsa-Lösung gefärbt. Die inhibitorische Konzentration (IC₅₀) wurde mikroskopisch als die Konzentration ermittelt, bei der der zytopathische Effekt um 50% gehemmt wurde, im Vergleich zur unbehandelten Viruskontrolle, die 100% Zellzerstörung aufwies.

For `CC(C)c1ccc(NC(=O)CCN2C[C@@H](O)[C@@H](O)[C@H](O)[C@H]2CO)cc1` [3-(1,5-Didesoxy-1,5-imino-D-mannit-N-yl)-propionsäure-4-isopropyl-anilid], which “Reduktion der Konzentration der Einzelkomponenten um den Faktor” value (by combining both active substances, versus the single component alone) is on record?
Its value is 30.

And the “Antivirale Wirkung in der Zellkultur*” value (Konzentration der Testsubstanz 0,03 mg/ml)?
The value was 2 (2 = 50% Schutzeffekt der infizierten Zellkultur).

What about the “Antivirale Wirkung in der Zellkultur*” value (Konzentration der Testsubstanz 0,5 mg/ml) of the same compound?
The value was 3 (3 = kompletter antiviraler Schutzeffekt; 100% Schutz der Zellen vor der Infektion).

What about the “Antivirale Wirkung in der Zellkultur*” value (Konzentration der Testsubstanz 0,06 mg/ml) of the same compound?
The value was 3 (3 = kompletter antiviraler Schutzeffekt; 100% Schutz der Zellen vor der Infektion).

What about the “Antivirale Wirkung in der Zellkultur*” value (Konzentration der Testsubstanz 0,25 mg/ml) of the same compound?
Its value is 3 (3 = kompletter antiviraler Schutzeffekt; 100% Schutz der Zellen vor der Infektion).

And the “Antivirale Wirkung in der Zellkultur*” value (Konzentration der Testsubstanz 0,001 mg/ml)?
The value was 0.

What about the “Antivirale Wirkung in der Zellkultur*” value (Konzentration der Testsubstanz 1 mg/ml) of the same compound?
Its value is 3 (3 = kompletter antiviraler Schutzeffekt; 100% Schutz der Zellen vor der Infektion).

And the “Antivirale Wirkung in der Zellkultur*” value (Konzentration der Testsubstanz 0,003 mg/ml)?
Its value is 0.

And the “Antivirale Wirkung in der Zellkultur*” value (Konzentration der Testsubstanz 0,007 mg/ml)?
The value was 0.

And the “Antivirale Wirkung in der Zellkultur*” value (Konzentration der Testsubstanz 0,015 mg/ml)?
The value was 1 (1- 10 - 20% Schutzeffekt der infizierten Zellkultur).

What about the “Antivirale Wirkung in der Zellkultur*” value (Konzentration der Testsubstanz 0,125 mg/ml) of the same compound?
Its value is 3 (3 = kompletter antiviraler Schutzeffekt; 100% Schutz der Zellen vor der Infektion).
